Measurements published in patent US11998008B2, “Pesticides and methods of controlling pests” (The State of Israel, Ministry of Agriculture & Rural …, priority 2017, dated 2024).

Legend:
[1] = test system: S. rolfsii; test: Fungicidal activity assay on PDA in sealed Petri dish (growth inhibition and mortality); assay type: cell-based, Sclerotinia rolfsii; settings: S. rolfsii; for I - Inhibition class: 2 days; for M - Mortality, minimal concentration that killed the fungus: NA + number = still viable in the highest concentration tested (given as >); for I - Inhibition, minimal concentration that inhibited the growth: concentration to which the class above belongs
Protocol: (§1) Each compound was placed on a disconnected cover from an Eppendorf tube that was located in the middle of the Petri dish and a hyphae-containing plug of each test fungus was added to the culture plate. In exemplary procedures, the tested compounds trans-2-heptenal, trans-2-octenal were tested in comparison with octanal, trans-2-octen-1-ol, methyl trans-2-octenoate, trans-3-octen-2-one and 3-pentenenitrile. In addition, cyclic ketones as 2-cyclopenten-1-one, 2-cyclohexen-1-one and α-tetralone were also examined. Then, the culture plate was sealed with parafilm and incubated at room-temperature for 2 days, after which the growth of the test fungi in those dishes was compared with those in the test compound-free control dishes. At the end of the assay, the viability of each test fungus was evaluated by transferring inoculum plugs to fresh PDA plates and observing the growth that developed within the next 2 days. The test fungi used in this study included but were not limited to Alternaria alternata, Botrytis cinerea, Sclerotinia rolfsii, Penicillium digitatum, Fusarium oxysporum f. sp. radicis-cucumerinum and Rhizoctonia solani.

[2] = test system: R. solani; test: microbe, parasite or virus in culture; assay type: cell-based; settings: R. solani
Protocol: as §1

[3] = test system: Meloidogyne javanica second stage juveniles (J2s); test: Nematocidal activity: viability of J2 nematodes after 2 days exposure to the compound in a sealed box; settings: in vivo
[4] = test system: Meloidogyne javanica second stage juveniles (J2s); test: as above; assay type: in vivo
From the text: In exemplary procedures, the sedentary root-knot nematode from the genus Meloidogyne javanica second stage juveniles (J2s) was propagated on greenhouse-grown nematode-susceptible tomato Lycopersicon esculentum cv. ‘Avigail 870’ (Hazera, Shikmim, Israel), and nematode eggs were bulk-extracted from the roots with 0.05% (v/v) sodium hypochlorite (NaOCl) followed by sucrose flotation and successive sievings through nylon filters of 300, 120, 60, and 30 μm mesh sizes (AD Sinun Technologies, Petach Tikvah, Israel). For hatching J2, extracted eggs were placed on 30-μm sieves (AD Sinun Technologies) in 0.01 M MES (2-(N-morpholino) ethanesulfonic acid hydrate) pH 6.5 buffer under aseptic conditions in darkness for 5 days, and hatching J2s were collected for further experiments.
Seven vials, each containing 300 J2 nematodes with 0.5 mL of 0.01 M 2-(N-morpholino)ethanesulfonic acid (MES) buffer, were exposed to cyclic ketone compounds in order to examine their nematocidal activity and reduction in viability. In addition, a humid environment in a sealed 1 L box was maintained by addition 5 ml of distilled H2O to a 50-mm Petri plate. The box was sealed after compound addition into each 50-mm Petri plate together with 5-250 mg of perlite particles and incubated for 2 days in the dark at 25±1° C. C5 and C6 saturated and α,β-unsaturated cyclic ketones were tested for their nematocidal activity. The J2 nematodes viability was examined following exposure to the cyclic ketone compounds, by a straightforward small-scale nematode extraction method, based on the traditional Baermann funnel method. Briefly, all nematode suspensions were loaded onto 30-μm (AD Sinun Technologies) filters (1.0-1.5 cm height, 1.1-2.0 cm^3 internal area), and the nematodes were washed twice with 300 μL of 0.01 M MES buffer in order to remove any residues. Then, filters holding nematodes were placed into 15 mL Falcon centrifuge tubes, each containing 900 μL of 0.01 M of MES buffer. These filters allow active passage of only living J2s while paralyzed or dead nematodes remain on top of the filter. The whole apparatus including the filter holding the nematodes and the Falcon tubes were placed in the dark for 3 h at 25±1° C. Then, the filters were removed and the viable nematodes, which were able to actively cross the filter toward the 0.01 M of MES buffer, were collected from the Falcon tube and counted using a Nematode Counting Slide (Chalex LLC, Portland, OR, USA) and a SV11 stereomicroscope (Zeiss, Jena, Germany).
Data were analyzed by the JMP 12 software package (SAS Inc., Cary, NC, USA). Mean numbers of viable J2s under various conditions were subjected to one-way analysis of variance (ANOVA), followed by the Tukey-Kramer multiple comparison test, with significance set at P<0.05.

[5] = test system: F. oxysporum f. sp. radicis-cucumerium; test: Fungicidal activity assay on PDA in sealed Petri dish (growth inhibition and mortality); assay type: cell-based, Fusarium oxysporum f. sp. radicis-cucumerinum
Protocol: as §1

[6] = test system: B. cinerea; test: as above; assay type: cell-based, Botrytis cinerea; settings: for I - Inhibition class: 2 days; for M - Mortality, minimal concentration that killed the fungus: NA + number = still viable in the highest concentration tested (given as >); for I - Inhibition, minimal concentration that inhibited the growth: concentration to which the class above belongs
Protocol: as §1, with “In exemplary procedures, the fungicidial activity of the compounds listed in Table 2 were examined by activity assays as follow: Petri dishes, 90 mm in diameter, with air volume of 80 mL, contained 10-12 mL of growth medium comprising potato dextrose agar (PDA) (Acumedia, Lansing, Michigan, USA) amended with tetracycline at 12 μg/mL. Each” for “Each”

[7] = test system: P. digitatum; test: as above; assay type: cell-based, Penicillium digitatum; settings: for I - Inhibition class: 2 days; for M - Mortality, minimal concentration that killed the fungus: NA + number = still viable in the highest concentration tested (given as >); for I - Inhibition, minimal concentration that inhibited the growth: concentration to which the class above belongs
Protocol: as §1, with “In exemplary procedures, the fungicidial activity of the compounds listed in Table 2 were examined by activity assays as follow: Petri dishes, 90 mm in diameter, with air volume of 80 mL, contained 10-12 mL of growth medium comprising potato dextrose agar (PDA) (Acumedia, Lansing, Michigan, USA) amended with tetracycline at 12 μg/mL. Each” for “Each”

[8] = test system: A. alternata; test: as above; assay type: cell-based, Alternaria alternata; settings: for I - Inhibition class: 2 days; for M - Mortality, minimal concentration that killed the fungus: NA + number = still viable in the highest concentration tested (given as >); for I - Inhibition, minimal concentration that inhibited the growth: concentration to which the class above belongs
Protocol: as §1, with “In exemplary procedures, the fungicidial activity of the compounds listed in Table 2 were examined by activity assays as follow: Petri dishes, 90 mm in diameter, with air volume of 80 mL, contained 10-12 mL of growth medium comprising potato dextrose agar (PDA) (Acumedia, Lansing, Michigan, USA) amended with tetracycline at 12 μg/mL. Each” for “Each”

[9] = NA + number = still viable in the highest concentration tested (given as >)
[10] = concentration to which the class above belongs
[11] = at the concentration given, 2 days incubation

Row | Compound | I - Inhibition class [1] | M - Mortality, minimal concentration that killed the fungus [1] [ppm] | I - Inhibition, minimal concentration that inhibited the growth [1] [ppm] | Activity: the most effective concentration [3] | Activity: reduction in J2s viability relative to non exposed control J2s (class) [4, 11] | I - Inhibition class [6] | M - Mortality, minimal concentration that killed the fungus [6] [ppm] | I - Inhibition, minimal concentration that inhibited the growth [6] [ppm] | I - Inhibition class [7] | M - Mortality, minimal concentration that killed the fungus [7] [ppm] | I - Inhibition, minimal concentration that inhibited the growth [7] [ppm] | I - Inhibition class [8] | M - Mortality, minimal concentration that killed the fungus [8] [ppm] | I - Inhibition, minimal concentration that inhibited the growth [8] [ppm] | further results
1 | C/C=C(\C)C=O [Tiglic aldehyde] | MI (Medium inhibition - 76-99% of growth inhibition) | > 25 | 25 | M 25 ppm | M (76-90% reduction in viability) |  |  |  |  |  |  |  |  |  | I - Inhibition class ([2]; 2 days): MI (Medium inhibition - 76-99% of growth inhibition); M - Mortality, minimal concentration that killed the fungus [2, 9]: > 25 ppm; I - Inhibition, minimal concentration that inhibited the growth [2, 10]: 25 ppm; I - Inhibition class ([5]; 2 days): NI (<50% growth inhibition); M - Mortality, minimal concentration that killed the fungus [5, 9]: > 25 ppm; I - Inhibition, minimal concentration that inhibited the growth [5, 10]: 25 ppm
2 | CC(C)=CCCC(C)=CCCC(C)=CC=O (single isomer, unassigned) [Farnesal mixture of isomers, Farnesal] | MI (Medium inhibition - 76-99% of growth inhibition) | > 125 | 125 | N 250 ppm | N (<50% reduction in viability) | MI (Medium inhibition - 76-99% of growth inhibition) | > 125 | 12.5 | NI (<50% growth inhibition) | > 125 | 125 | NI (<50% growth inhibition) | > 125 | 125 | 
3 | CC(=O)/C=C/C1C(C)=CCCC1(C)C (stereo not drawn) [α-ionone] | LI (Low inhibition - 51-75% of growth inhibition compared to control.) | > 1250 | 1250 | N 250 ppm |  | LI (Low inhibition - 51-75% of growth inhibition compared to control.) | > 1250 | 1250 | NI (<50% growth inhibition) | > 1250 | 1250 | LI (Low inhibition - 51-75% of growth inhibition compared to control.) | > 1250 | 1250 | Activity: reduction in J2s viability relative to non exposed control J2s (class) ([4]; in vivo): N 250 (key: S: >90% reduction in viability; M: 76-90% reduction in viability; L: 51-75% reduction in viability; N: <50% reduction in viability)
